# Data: patent US9896421B2, “Compound having skin-whitening, anti-oxidizing and PPAR activities and medical use thereof” (Pusan National University Industry-University Cooperation …, priority 2011, dated 2018)
row,SMILES,melting point
1,"[H]/N=C1/NC(=O)C(=Cc2cc(OC)c(O)c(OC)c2)S1 [Compound 122, (Z)-5-(4-hydroxy-3,5-dimethoxybenzylidene)-2-iminothiazolidin-4-one]",254.3 to 256.6 °C
2,O=C1NC(=S)NC(=O)C1=Cc1ccc(O)cc1O,> 300 °C
3,"[H]/N=C1/NC(=O)C(=Cc2ccc(OC)cc2OC)N1C [Compound 81, (Z)-5-(2,4-dimethoxybenzylidene)-2-imino-1-methylimidazolidin-4-one]",244.6 to 245.6 °C
4,"COc1cc(/C=C2\CC(=O)NC2=O)cc(OC)c1O [Compound 48, (E)-3-(4-hydroxy-3,5-dimethoxybenzylidene)pyrrolidine-2,5-dione]",236.7 to 237.7 °C
5,COc1ccc(C=C2C(=O)NC(=O)NC2=O)cc1OC,> 300 °C
6,CCOc1cc(C=C2C(=O)NC(=S)NC2=O)ccc1O,285 to 287.3 °C
7,"[H]/N=C1/NC(=O)C(=Cc2ccc(O)cc2)N1C [Compound 74, (Z)-5-(4-hydroxybenzylidene)-2-imino-1-methylimidazolidin-4-one]",285.9 to 288 °C
8,COc1ccc(C=C2C(=O)NC(=O)NC2=O)cc1O,279.3 to 281.4 °C
9,"O=C1C/C(=C\c2ccccc2O)C(=O)N1 [Compound 46, (E)-3-(2-hydroxybenzylidene)pyrrolidine-2,5-dione]",271.3 to 272.1 °C
10,COc1cc(C=C2C(=O)NC(=S)NC2=O)ccc1O,260.9 to 263.6 °C
11,"COc1cc(/C=C2\NC(=O)NC2=O)cc(OC)c1OC [Compound 34, (Z)-5-(3,4,5-trimethoxybenzylidene)imidazolidine-2,4-dione]",266.3 to 267.2 °C
12,"COc1cc(/C=C2\SC(=O)NC2=O)cc(OC)c1OC [Compound 12, (Z)-5-(3,4,5-trimethoxybenzylidene)thiazolidine-2,4-dione]",179.1 to 181 °C
13,"[H]/N=C1/NC(=O)C(=Cc2cc(O)cc(O)c2)S1 [Compound 118, (Z)-5-(3,5-dihydroxybenzylidene)-2-iminothiazolidin-4-one]",> 300 °C
14,"[H]/N=C1/NC(=O)C(=Cc2ccc(OC)cc2OC)S1 [Compound 119, (Z)-5-(2,4-dimethoxybenzylidene)-2-iminothiazolidin-4-one]",249.1 to 250.7 °C
15,COc1ccc(C=C2C(=O)NC(=S)NC2=O)c(OC)c1,294.1 to 295.4 °C
16,O=C1NC(=S)NC(=O)C1=Cc1ccccc1O,250.6 to 251.4 °C
17,COc1cc(C=C2C(=O)NC(=S)NC2=O)cc(OC)c1OC,258.9 to 260.7 °C
18,"COc1ccc(/C=C2/C(=O)NC(=N)N2C)cc1 [Compound 79, (Z)-2-Imino-5-(4-methoxybenzylidene)-1-methylimidazolidin-4-one]",252.1 to 255 °C
19,"COc1cc(/C=C2\NC(=O)NC2=O)cc(OC)c1O [Compound 151, (Z)-5-(4-hydroxy-3,5-dimethoxybenzylidene)imidazolidine-2,4-dione]",266 to 268.5 °C
20,"COc1ccc(/C=C2\SC(=S)NC2=O)c(OC)c1 [Compound 70, (Z)-5-(2,4-dimethoxybenzylidene)-2-thioxothiazolidin-4-one]",272.7 to 275.2 °C
21,"O=C1NC(=O)/C(=C/c2ccc(O)cc2)N1 [Compound 25, (Z)-5-(4-hydroxybenzylidene)imidazolidine-2,4-dione]",> 300 °C
22,"[H]/N=C1/NC(=O)C(=Cc2ccc(O)c(OCC)c2)N1C [Compound 77, (Z)-5-(3-ethoxy-4-hydroxybenzylidene)-2-imino-1-methylimidazolidin-4-one]",254.2 to 255.6 °C
23,"COc1ccc(/C=C2\NC(=S)NC2=O)cc1OC [Compound 105, (Z)-5-(3,4-dimethoxybenzylidene)-2-thioxoimidazolidin-4-one]",236.2 to 238 °C
24,"COc1ccc(/C=C2\NC(=O)NC2=O)c(OC)c1 [Compound 32, (Z)-5-(2,4-dimethoxybenzylidene)imidazolidine-2,4-dione]",234.1 to 237.2 °C
